Test results: patent US7211120B2, “Method for forming a pattern of an organic semiconductor film” (Canon Kabushiki Kaisha, priority 2002, dated 2007)

Key:
Assay type in all cases: physicochemical
[1] = Water-fastness test, recorded article immersed in city water; conditions: Reference Example printed article; city water 5 minutes
Procedure: (§1) Reddish purple color square patches of 1 cm×1 cm were printed on a recording medium (trade name: PR-101; manufactured by Canon Inc.) using the above two types of ink on an ink-jet printer, trade name: BJ-F 870; manufactured by Canon Inc. The color patches of Example 2 were heat treated at 120° C. for 1 minute for retro-Diels-Alder reaction of the compound 7 and converted into cyan color patch. The resultant color patches of Example 2 and Reference Example were tested for their light-fastness, gas-fastness, water-fastness and moisture-fastness.
The obtained recorded article was immersed in city water for 5 minutes, drawn up from the water and dried, and its change in density before and after the test was determined. • A: Density reduction rate of 1% or less. • B: Density reduction rate of 2 to 4% • C: Density reduction rate of 5% or more (Humidity-fastness)

[2] = Humidity-fastness test, recorded article stored in thermo-hydrostat vessel; conditions: Reference Example printed article; 30° C., 80% RH, 1 week
Procedure: as §1
The obtained recorded article was stored in a thermo-hydrostat vessel at 30° C., 80% RH for 1 week, drawn from the vessel and dried, and its change in density before and after the test was determined. • A: Density reduction rate of 1% or less • B: Density reduction rate of 2 to 4% • C: Density reduction rate of 5% or more.

[3] = Gas-fastness test of printed colour patch with gas corrosion tester; conditions: Reference Example printed article; mixed gas, 72 hours, 24° C., 60% RH
Procedure: as §1
Gas-exposure-fastness testing was conducted with a gas corrosion tester under the following test conditions (ANSI/ISA-S71.04-1985). This was to test fastness of an image assuming the effects of various gases in a room.
• Exposing gas composition: H2S: 50 ppb, SO2: 300 ppb, NO2: 1250 ppb, Cl2: 10 ppb, O3: 1200 ppb • Testing duration: 72 hours, Temperature/humidity conditions in a testing vessel: 24° C., 60% RH
The gas-fastness was evaluated as follows: • A: Density remaining rate of 90% or more • B: Density remaining rate of 89 to 80% • C: Density remaining rate of 79% or less (Water-fastness)

[4] = Light-fastness test of printed colour patch with xenon fade meter; conditions: Reference Example printed article; 70 Kl×, 520 hours, 24° C., 60% RH
Procedure: as §1
Light-exposure-fastness test was conducted with a xenone fade meter in accordance with the following test conditions. This was to test fastness of an image mimicking sunlight entering through a window in a room.
• Irradiation Intensity: 70 Kl×testing duration 520 hours • Temperature/humidity conditions in a testing vessel: 24° C., 60% RH • Filter: soda lime (outer), borosilicate (inner)
The light-fastness was evaluated as follows: • A: Density remaining rate of 90% or more • B: Density remaining rate of 89 to 80% • C: Density remaining rate of 79% or less (Gas-fastness)

Water-fastness [1]: C (Density reduction rate of 5% or more)
Humidity-fastness [2]: B (Density reduction rate of 2 to 4%)
Substance: C.I. Direct Blue 199 [DBL-199]
Gas-fastness [3]: C (Density remaining rate of 79% or less)
Light-fastness [4]: A (Density remaining rate of 90% or more)
